The text below walks through data of patent US12479794B2, “Acetophenone oxime compound and application thereof” (Medshine Discovery Inc., priority 2020, dated 2025).

Series [1] can be described thus: Pharmacokinetic evaluation in SD rats (iv and oral). The settings on record: 1 mg/kg. It is filed as in vivo, Sprague Dawley rats. The method, then:
Assay Example 2: Pharmacokinetic Evaluation of Compounds in Rats
Object of the assay: To evaluate the in vivo pharmacokinetics of the compounds in SD rats
Sprague Dawley rats (male, 200-300 g, 7-9 weeks old, Shanghai SLAC)
The pharmacokinetic characteristics of the compounds in rodents after intravenous injection and oral administration were assayed according to the standard protocol. In the assay, the candidate compounds were formulated into clear solutions and administered to rats by single intravenous injection and oral administration. The vehicle for intravenous injection and oral administration was DMSO and 10% hydroxypropyl β-cyclodextrin in water (DMSO:10% hydroxypropyl β-cyclodextrin in water=5:95). Whole blood samples were collected within 48 hours, and centrifuged at 3000 g for 15 minutes. The supernatant was separated to give plasma samples. 4 times the volume of acetonitrile solution containing internal standard was added to precipitate protein. The resulting mixture was centrifuged and the supernatant was taken out. An equal volume of water was added and the mixture was centrifuged. The supernatant was taken out, and injected as a sample to quantitatively analyze the plasma drug concentration by LC-MS/MS analysis method. The pharmacokinetic parameters, such as peak concentration, time to peak, clearance rate, half-life, area under drug-time curve, bioavailability, etc., were calculated.

In the next series the target is T1, S1P1 (Homo sapiens, UniProt P21453).
T1 construct: host or cells: U2OS
The series can be described thus: In vitro agonistic activity on S1P1, U2OS-EDG1 cells, LiveBLAzer FRET B/G. It is filed as cell-based. As to the method: Assay Example 1: In Vitro Evaluation of the Agonistic Activity of the Compounds of the Present Disclosure on S1P1
Object of the assay: To detect the agonistic activity of compounds on S1P1
• 1. Cells U2OS-EDG1 (Batch No.: Invitrogen-K1520) were taken out of a liquid nitrogen tank and placed in a 37° C. water bath to thaw quickly; • 2. The cell suspension was aspirated into a 15 ml centrifuge tube, resuspended in 5 ml of preheated medium, and centrifuged at 1000 rpm for 5 min; • 3. The supernatant was discarded. The cells were resuspended in 10 ml of medium, transferred into a T75 culture flask, and cultivated in an incubator with 5% CO2 at 37° C. II. Agonist Assay • 1. The compounds were diluted to working concentrations, and serially diluted 3-fold by Echo 555 (manufacturer: Labcyte) to obtain 10 concentrations; 200 nL of each concentration of the compound was transferred to a cell plate and centrifuged at 1000 rpm for 15 seconds; • 2. Culture medium was aspirated from the culture flask; 4 mL of Dulbecco's phosphate buffer (DPBS, supplier: Coring, item No.: 21-031-CVR, batch No.: 03318006) was added, and the residual serum was washed away; 2 mL of trypsin was added; The mixture was incubated in an incubator at 37° C. for 2 min, and the cells were digested; 10 mL of seeding medium was added to resuspend the cells; 0.6 mL of cell suspension was taken out and counted; • 3. The density of cells was adjusted to 1.88E+05 cells/mL using seeding medium, with 40 μL per well (7500\well); 40 μL of FreeStyle™ Expression medium was added around the cell plate; The plate was let stand at room temperature for 15 min and incubated at 37° C. with 5% CO2 for 20 hours. III. Signal Detection • 1. LiveBLAzer™-FRET B/G Substrate (CCF4-AM) assay reagents were formulated according to the instructions; • 2. 8 μL of 6×Substrate Mixture was added to each well of the cell plate; The plate was centrifuged at 1000 rpm for 15 seconds, covered with a film, and incubated at 23° C. for 2 hours; The cell plate was subjected to Envision […] detection. IV. Data Analysis • 1. The raw data were converted into % Effect by using an equation, and the EC50 value can be obtained by curve fitting with four parameters [“log(agonist) vs. response—Variable slope” model in GraphPad Prism]; • 2. Calculation formula: Ratio=(460 nm−blank)/(535 nm−blank) % Effect=(SampleRatio−Ave LCRatio)/(Ave HCRatio−Ave LCRatio)×100%

The nature of series [2]: Metabolite identification after incubation in human liver microsomes with NADPH. It is filed as in vitro ADME. The settings on record: 10 μM, 37° C., 1 hour. As to the method:
Assay Example 4: Analysis and Identification of Metabolites of the Compound in Human Liver Microsome and Hepatocyte Incubation System
By using high-resolution mass spectrometry, the metabolite produced by the incubation of compound 32B in human liver microsomes and human hepatocytes was found, and identified for its structure; the percentage content of compound 32B and its metabolite was calculated by using LC-UV; and the possible biotransformation pathway of compound 32B in human liver microsomes and human hepatocytes in vitro was studied.
Compound 32B (10 μM) was incubated in a system containing both of human liver microsomes and NADPH at 37° C. for 60 min. 7-ethoxycoumarin (7-EC, 10 μM) was used as a positive control to evaluate the enzymatic metabolic activity in the liver microsome incubation system. The incubated sample was analyzed by LC-UV-HRMS. The structure of each metabolite was resolved and identified based on its primary and secondary mass spectrometry signals and/or comparison with a standard. The relative percentage of the UV-integrated peak area of each metabolite was given through data collected from the sample by LC-UV-HRMS, and the possible structure of the metabolite and its possible metabolic pathway in various genera of liver microsomes were inferred from the mass spectrometry information of the metabolite.
(In general: Liver microsomes are a subcellular fraction often used to study metabolism.)

Another series has as its target T2, S1P2 (Homo sapiens, UniProt O95136).
T2 construct: expressed in transfected cells
The series can be described thus: In vitro agonistic activity on S1P2, PathHunter cell line. It is filed as cell-based. The settings on record: PathHunter cells. The method, then: (§1) Assay Example 5: In Vitro Evaluation of the Agonistic Activity of the Compound of the Present Disclosure on S1P2, S1P3 and S1P4
(§2) Object of the assay: To detect the agonistic activity of the compound on S1P2, S1P3, and S1P4
(§3) • 1. PathHunter cell line was expanded from freezer according to standard procedures. • 2. Cells were seeded into a white 384-well microplate in a total volume of 20 μL and incubated at 37° C. for an appropriate time prior to testing. II. Agonist Assay • 1. For the agonist assay, cells were incubated with a sample to induce a response. • 2. Stock solution was stored in a buffer at a concentration of 5 times the concentration to be tested. • 3. 5 μl of the stock solution sample at a concentration of 5 times the concentration to be tested was added to the cells and incubated at 37° C. or room temperature for 90-180 min with a vehicle concentration of 1%. III. Signal Detection • 1. […] Chemiluminescent Signal detection was performed using a PerkinElmer Envision™ instrument, and the microplate was read after signal generation. […] The activity of the compound was analyzed using the CBIS data analysis suite (ChemInnovation, CA). • 2. For the agonist mode assay, the percent activity was calculated using the following formula: % Activity=100%×(Mean RLU of the Assay Sample−Mean RLU of the Blank Control)/(Mean MAX Control Ligand−Mean RLU of the Blank Control).

The target of a further series is T3, S1P3 (Homo sapiens, UniProt Q99500).
T3 construct: expressed in transfected cells
The series can be described thus: In vitro agonistic activity on S1P3, PathHunter cell line. It is filed as cell-based. As to conditions: PathHunter cells. The method, then: as §1, §2, §3

Marks after values point to notes of the source that are not given here.

T1 sequence (P21453 whole entry): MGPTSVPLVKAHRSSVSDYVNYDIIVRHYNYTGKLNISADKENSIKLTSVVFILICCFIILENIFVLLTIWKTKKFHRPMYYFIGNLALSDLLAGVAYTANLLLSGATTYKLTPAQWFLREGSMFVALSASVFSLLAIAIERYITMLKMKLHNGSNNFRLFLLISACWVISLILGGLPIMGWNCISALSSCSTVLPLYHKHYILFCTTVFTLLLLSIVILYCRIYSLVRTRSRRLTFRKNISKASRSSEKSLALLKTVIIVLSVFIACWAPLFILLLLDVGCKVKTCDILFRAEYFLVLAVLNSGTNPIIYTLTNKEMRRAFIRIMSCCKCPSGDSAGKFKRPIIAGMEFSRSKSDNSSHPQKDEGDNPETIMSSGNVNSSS
T3 sequence (Q99500 whole entry): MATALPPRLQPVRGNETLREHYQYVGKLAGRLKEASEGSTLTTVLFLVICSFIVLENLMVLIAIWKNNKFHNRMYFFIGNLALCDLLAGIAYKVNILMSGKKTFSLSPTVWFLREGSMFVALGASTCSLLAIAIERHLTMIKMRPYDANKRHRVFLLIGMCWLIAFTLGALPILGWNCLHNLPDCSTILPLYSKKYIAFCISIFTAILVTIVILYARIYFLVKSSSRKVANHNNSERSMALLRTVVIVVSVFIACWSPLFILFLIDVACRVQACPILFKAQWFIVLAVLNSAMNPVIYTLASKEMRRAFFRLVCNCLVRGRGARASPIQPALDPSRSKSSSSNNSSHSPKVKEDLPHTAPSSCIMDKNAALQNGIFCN
T2 sequence (O95136 whole entry): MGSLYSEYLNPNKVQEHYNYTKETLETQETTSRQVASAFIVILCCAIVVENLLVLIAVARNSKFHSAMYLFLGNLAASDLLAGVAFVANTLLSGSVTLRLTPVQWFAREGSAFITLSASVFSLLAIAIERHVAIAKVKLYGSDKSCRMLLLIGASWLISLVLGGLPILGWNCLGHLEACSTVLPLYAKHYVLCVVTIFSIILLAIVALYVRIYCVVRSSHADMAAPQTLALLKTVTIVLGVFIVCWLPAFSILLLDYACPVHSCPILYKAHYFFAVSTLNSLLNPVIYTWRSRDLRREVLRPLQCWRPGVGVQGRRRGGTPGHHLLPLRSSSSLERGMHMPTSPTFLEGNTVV

As a reminder, the EC50 is the concentration that produces a half-maximal response. For the compound `CC(=NOCc1ccc(OC(C)C)c(C(F)(F)F)c1)c1ccc2c(c1)CCC2N1CC(C(=O)O)C1` (single isomer, unassigned) [Compound 32B], in series [1] (iv 1.0 mg/kg only (head prints PO)), the “Half life T1/2 (PO)” value is 8.3 h. In series [1] (iv 1.0 mg/kg), the “Area under drug-time curve AUC0-last iv” value is on record as 7483* nM · hr, the “Clearance rate CL” value was found to be 0.238 L/h/kg and the “Distribution in tissue Vdss” value came out at 2.7 L/kg. Besides, the half-maximal effective concentration (EC50) on S1P1 was found to be 0.00115 µM. The “Emax of agonistic activity on S1P1” value on S1P1 (% Effect) is given as “nM, 103.4%”. Also, in series [2], the Metabolites detected entry was “no other metabolite was detected” and the “Relative abundance of the original drug” value came out at 100.00%. Further, the EC50 on S1P2 was greater than 0.3 µM. This compound registered an EC50 at S1P3 greater than 0.3 µM.
